{
  "source": "patent US20040009485A1",
  "about": "“Cellular arrays for the identification of altered gene expression” (priority 2002, published 2004)",
  "system": "LuxArray 1.04 E. coli strains (luxCDABE gene fusions)",
  "assay": "LuxArray 1.04 limonene stress of the reporter array in liquid culture",
  "format": "cell-based",
  "details": "80% saturated limonene in LB",
  "experimental": "Microplates from −80° C. containing the LuxArray 1.04 E. coli strains were thawed and used to inoculate 100 μl LB medium supplemented with 100 μg/ml ampicillin in Costar#3595 flat bottomed 96-well microplates. Following overnight growth at 37° C., the plates were visually examined and any wells with little or no turbidity were recorded. Then these cultures were diluted by transfer of 15 μl to 135 μl LB medium in Costar #3595, flat bottom 96-well microplates and were moderately swirl shaken on an IKA Schuttler MTS 4 shaker at setting 400 for two hrs at 37° C. in a humidified box. Twenty μl of each these actively growing cultures were transferred to the corresponding well in sets of three microplates, one containing 80 μl of LB medium, another containing 80 μl of LB medium saturated with limonene at room temperature, and the third containing 40 μl of LB medium saturated with limonene and 40 μl of LB medium. An initial (zero time) reading was taken using an MLX microplate luminometer (Dynex) pre-warmed to 37° C. Then the plates were placed at 37° C. without shaking. Additional bioluminescent measurements were taken at 45, 90, and 135 minutes. To limit the number of microplates handled each day, LuxArray 1.04 microplates 1 to 5, microplates 6 to 10, microplates 11 to 15, and microplates […] were used on each of four different days.\nThe data were normalized to correct for growth-inhibition caused by limonene on the basis of each individual day that data was collected. The bioluminescence (RLU) of each individual culture for each day of experimentation under each of the three conditions, were added to determine the daily array total RLU. These were used to find a daily normalization factor (DNF) as follows:\nDNF=Daily total array signal(time zero, LB control)/Daily total array signal(time x, condition y)\nEach measurement from the corresponding day, time point, and condition was multiplied by DNF to yield a normalized signal. The data from wells that were scored to have little or no growth were not used in further analysis. The normalized data were analyzed with GeneSpring (Silicon Genetics) software, which averaged the signal from each of the duplicate cultures for each reporter gene fusion.\nThus, patterns of gene expression from the 80% saturated limonene in LB medium were further examined. […] These lists were examined and gene fusions with very low normalized RLU values (<0.012 RLU) at all conditions were eliminated. […] The designation of “>2X” is given for upregulation while “*” is listed if the expression was less than 2 fold increased. At 45 minutes, the expression of fourteen gene fusions was increased; none of these was increased 3 fold or higher. At 90 minutes, 37 gene fusions were induced; these included all but one of the gene fusions observed at 45 minutes. […] These were fusions of the luxCDABE reporter to the promoter regions of uhpT (3.8×), nirB (3.7×) and narK (3.6×). At 135 minutes, 39 gene fusions were induced, which included 13 fusions not observed at 45 or 90 minutes.",
  "data": [
    {"smiles": "C=C(C)[C@H]1CC=C(C)CC1", "note": "[limonene]", "values": [
      {"measurement": "upregulation of gene fusion", "setting": "b2451 fusion, 135 minutes", "value": ">2X (The designation of “>2X” is given for upregulation)"},
      {"measurement": "upregulation of gene fusion", "setting": "b2550 fusion, 45 minutes", "value": "* (“*” is listed if the expression was less than 2 fold increased)"},
      {"measurement": "upregulation of gene fusion", "setting": "b2550 fusion, 90 minutes", "value": ">2X (The designation of “>2X” is given for upregulation)"},
      {"measurement": "upregulation of gene fusion", "setting": "b2550 fusion, 135 minutes", "value": "* (“*” is listed if the expression was less than 2 fold increased)"},
      {"measurement": "upregulation of gene fusion", "setting": "b2699 (recA) fusion, 45 minutes", "value": "* (“*” is listed if the expression was less than 2 fold increased)"},
      {"measurement": "upregulation of gene fusion", "setting": "b2699 (recA) fusion, 90 minutes", "value": ">2X (The designation of “>2X” is given for upregulation)"},
      {"measurement": "upregulation of gene fusion", "setting": "b2699 (recA) fusion, 135 minutes", "value": ">2X (The designation of “>2X” is given for upregulation)"},
      {"measurement": "upregulation of gene fusion", "setting": "b2999 fusion, 45 minutes", "value": ">2X (The designation of “>2X” is given for upregulation)"},
      {"measurement": "upregulation of gene fusion", "setting": "b2999 fusion, 90 minutes", "value": "* (“*” is listed if the expression was less than 2 fold increased)"},
      {"measurement": "upregulation of gene fusion", "setting": "b2999 fusion, 135 minutes", "value": "* (“*” is listed if the expression was less than 2 fold increased)"},
      {"measurement": "upregulation of gene fusion", "setting": "b3012 fusion, 45 minutes", "value": ">2X (The designation of “>2X” is given for upregulation)"},
      {"measurement": "upregulation of gene fusion", "setting": "b3012 fusion, 90 minutes", "value": ">2X (The designation of “>2X” is given for upregulation)"},
      {"measurement": "upregulation of gene fusion", "setting": "b3012 fusion, 135 minutes", "value": ">2X (The designation of “>2X” is given for upregulation)"},
      {"measurement": "upregulation of gene fusion", "setting": "b3245 fusion, 45 minutes", "value": "* (“*” is listed if the expression was less than 2 fold increased)"},
      {"measurement": "upregulation of gene fusion", "setting": "b3245 fusion, 90 minutes", "value": ">2X (The designation of “>2X” is given for upregulation)"},
      {"measurement": "upregulation of gene fusion", "setting": "b3245 fusion, 135 minutes", "value": ">2X (The designation of “>2X” is given for upregulation)"},
      {"measurement": "upregulation of gene fusion", "setting": "b3267 (yhdV) fusion, 45 minutes", "value": "* (“*” is listed if the expression was less than 2 fold increased)"},
      {"measurement": "upregulation of gene fusion", "setting": "b3267 (yhdV) fusion, 90 minutes", "value": ">2X (The designation of “>2X” is given for upregulation)"},
      {"measurement": "upregulation of gene fusion", "setting": "b3267 (yhdV) fusion, 135 minutes", "value": ">2X (The designation of “>2X” is given for upregulation)"},
      {"measurement": "upregulation of gene fusion", "setting": "b3336 (bfr) fusion, 45 minutes", "value": "* (“*” is listed if the expression was less than 2 fold increased)"},
      {"measurement": "upregulation of gene fusion", "setting": "b3336 (bfr) fusion, 90 minutes", "value": ">2X (The designation of “>2X” is given for upregulation)"},
      {"measurement": "upregulation of gene fusion", "setting": "b3336 (bfr) fusion, 135 minutes", "value": "* (“*” is listed if the expression was less than 2 fold increased)"},
      {"measurement": "upregulation of gene fusion", "setting": "b3365 (nirB) fusion, 45 minutes", "value": "* (“*” is listed if the expression was less than 2 fold increased)"},
      {"measurement": "upregulation of gene fusion", "setting": "b3365 (nirB) fusion, 90 minutes", "value": ">2X (The designation of “>2X” is given for upregulation)"},
      {"measurement": "upregulation of gene fusion", "setting": "b3365 (nirB) fusion, 135 minutes", "value": ">2X (The designation of “>2X” is given for upregulation)"},
      {"measurement": "upregulation of gene fusion", "setting": "b3419 (yhgJ) fusion, 45 minutes", "value": "* (“*” is listed if the expression was less than 2 fold increased)"},
      {"measurement": "upregulation of gene fusion", "setting": "b3419 (yhgJ) fusion, 90 minutes", "value": ">2X (The designation of “>2X” is given for upregulation)"},
      {"measurement": "upregulation of gene fusion", "setting": "b3419 (yhgJ) fusion, 135 minutes", "value": ">2X (The designation of “>2X” is given for upregulation)"},
      {"measurement": "upregulation of gene fusion", "setting": "b3666 (uhpT) fusion, 45 minutes", "value": "* (“*” is listed if the expression was less than 2 fold increased)"},
      {"measurement": "upregulation of gene fusion", "setting": "b3666 (uhpT) fusion, 90 minutes", "value": ">2X (The designation of “>2X” is given for upregulation)"},
      {"measurement": "upregulation of gene fusion", "setting": "b3666 (uhpT) fusion, 135 minutes", "value": ">2X (The designation of “>2X” is given for upregulation)"},
      {"measurement": "upregulation of gene fusion", "setting": "b3904 (rhaB) fusion, 45 minutes", "value": ">2X (The designation of “>2X” is given for upregulation)"},
      {"measurement": "upregulation of gene fusion", "setting": "b3904 (rhaB) fusion, 90 minutes", "value": ">2X (The designation of “>2X” is given for upregulation)"},
      {"measurement": "upregulation of gene fusion", "setting": "b3904 (rhaB) fusion, 135 minutes", "value": ">2X (The designation of “>2X” is given for upregulation)"},
      {"measurement": "upregulation of gene fusion", "setting": "b3942 (katG) fusion, 45 minutes", "value": "* (“*” is listed if the expression was less than 2 fold increased)"},
      {"measurement": "upregulation of gene fusion", "setting": "b3942 (katG) fusion, 90 minutes", "value": ">2X (The designation of “>2X” is given for upregulation)"},
      {"measurement": "upregulation of gene fusion", "setting": "b3942 (katG) fusion, 135 minutes", "value": ">2X (The designation of “>2X” is given for upregulation)"},
      {"measurement": "upregulation of gene fusion", "setting": "b4043 (lexA) fusion, 45 minutes", "value": "* (“*” is listed if the expression was less than 2 fold increased)"},
      {"measurement": "upregulation of gene fusion", "setting": "b4043 (lexA) fusion, 90 minutes", "value": ">2X (The designation of “>2X” is given for upregulation)"},
      {"measurement": "upregulation of gene fusion", "setting": "b4043 (lexA) fusion, 135 minutes", "value": "* (“*” is listed if the expression was less than 2 fold increased)"},
      {"measurement": "upregulation of gene fusion", "setting": "b4106 (phnC) fusion, 45 minutes", "value": ">2X (The designation of “>2X” is given for upregulation)"},
      {"measurement": "upregulation of gene fusion", "setting": "b4106 (phnC) fusion, 90 minutes", "value": ">2X (The designation of “>2X” is given for upregulation)"},
      {"measurement": "upregulation of gene fusion", "setting": "b4106 (phnC) fusion, 135 minutes", "value": ">2X (The designation of “>2X” is given for upregulation)"},
      {"measurement": "upregulation of gene fusion", "setting": "b4264 (yjgS) fusion, 45 minutes", "value": "* (“*” is listed if the expression was less than 2 fold increased)"},
      {"measurement": "upregulation of gene fusion", "setting": "b4264 (yjgS) fusion, 90 minutes", "value": ">2X (The designation of “>2X” is given for upregulation)"},
      {"measurement": "upregulation of gene fusion", "setting": "b4264 (yjgS) fusion, 135 minutes", "value": "* (“*” is listed if the expression was less than 2 fold increased)"},
      {"measurement": "upregulation of gene fusion", "setting": "b4392 (slt) fusion, 45 minutes", "value": ">2X (The designation of “>2X” is given for upregulation)"},
      {"measurement": "upregulation of gene fusion", "setting": "b4392 (slt) fusion, 90 minutes", "value": ">2X (The designation of “>2X” is given for upregulation)"},
      {"measurement": "upregulation of gene fusion", "setting": "b4392 (slt) fusion, 135 minutes", "value": "* (“*” is listed if the expression was less than 2 fold increased)"},
      {"measurement": "upregulation of gene fusion (fold)", "setting": "katG promoter fusion, 135 minutes", "value": 4.1, "unit": "×"},
      {"measurement": "upregulation of gene fusion (fold)", "setting": "narK promoter fusion, 90 minutes", "value": 3.6, "unit": "×"},
      {"measurement": "upregulation of gene fusion (fold)", "setting": "nirB promoter fusion, 90 minutes", "value": 3.7, "unit": "×"},
      {"measurement": "upregulation of gene fusion (fold)", "setting": "nirB promoter fusion, 135 minutes", "value": 4.1, "unit": "×"},
      {"measurement": "upregulation of gene fusion (fold)", "setting": "uhpT promoter fusion, 90 minutes", "value": 3.8, "unit": "×"},
      {"measurement": "upregulation of gene fusion (fold)", "setting": "uhpT promoter fusion, 135 minutes", "value": 7.7, "unit": "×"}
    ]}
  ]
}
